Structures can show the parent of a compound that is named as a salt.
Target: T1, human PTH1 receptor (Homo sapiens, UniProt Q03431)
T1 sequence (Q03431 27-593): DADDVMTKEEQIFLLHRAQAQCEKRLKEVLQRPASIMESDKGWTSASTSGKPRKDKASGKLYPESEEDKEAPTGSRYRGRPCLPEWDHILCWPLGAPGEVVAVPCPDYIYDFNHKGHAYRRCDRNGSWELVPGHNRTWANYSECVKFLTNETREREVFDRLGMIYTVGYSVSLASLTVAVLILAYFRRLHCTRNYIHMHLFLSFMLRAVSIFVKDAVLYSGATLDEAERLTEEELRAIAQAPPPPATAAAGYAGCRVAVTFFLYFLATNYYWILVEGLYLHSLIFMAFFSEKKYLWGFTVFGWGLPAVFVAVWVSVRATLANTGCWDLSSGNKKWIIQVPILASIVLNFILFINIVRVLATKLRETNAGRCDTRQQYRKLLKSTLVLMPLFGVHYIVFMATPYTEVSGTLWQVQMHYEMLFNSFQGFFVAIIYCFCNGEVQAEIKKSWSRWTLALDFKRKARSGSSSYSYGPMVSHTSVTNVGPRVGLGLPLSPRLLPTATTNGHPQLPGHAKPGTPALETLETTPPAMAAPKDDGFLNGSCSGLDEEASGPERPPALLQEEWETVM
Test: In vitro cAMP signal activity in HKRK-B7 cells (LLC-PK1 cells overexpressing the human PTH1 receptor)
Assay type: cell-based
Conditions: HKRK-B7 cells; compound at 1×10^−3 M; cAMP produced as percentage of that produced by hPTH(1-34) at 100 nM

Cc1cc(S(=O)(=O)NCCCCO)ccc1CCS(=O)(=O)N1CCC2(CC1)N=C(c1cccc(OC(F)(F)F)c1)NC2=O [Compound 287, N-(4-hydroxy-butyl)-3-methyl-4-{2-[4-oxo-2-(3-trifluoromethoxy-phenyl)-1,3,8-triaza-spiro[4.5]dec-1-ene-8-sulfonyl]-ethyl}-benzenesulfonamide]
cAMP production activity (%): 58%

Cc1cc(N2CCC2=O)ccc1CCS(=O)(=O)N1CCC2(CC1)N=C(C1CCCCC1)NC2=O [Compound 861, 2-cyclohexyl-8-{2-[2-methyl-4-(2-oxo-azetidin-1-yl)-phenyl]-ethanesulfonyl}-1,3,8-triaza-spiro[4.5]dec-1-en-4-one]
cAMP production activity (%): 36%

CCCCCCCCCC1=NC2(CCN(S(=O)(=O)CCc3ccc(N4C(=O)CNC4=O)cc3C)CC2)C(=O)N1 [Compound 790, 3-{3-methyl-4-[2-(2-nonyl-4-oxo-1,3,8-triaza-spiro[4.5]dec-1-ene-8-sulfonyl)-ethyl]-phenyl}-imidazolidine-2,4-dione]
cAMP production activity (%): 88%

Cc1cc(C(=O)N2CCC(C)(O)CC2)cc(C)c1CCS(=O)(=O)N1CCC2(CC1)N=C(c1ccc(F)c(C(F)(F)F)c1)NC2=O [Compound 803, 2-(4-fluoro-3-trifluoromethyl-phenyl)-8-{2-[4-(4-hydroxy-4-methyl-piperidine-1-carbonyl)-2,6-dimethyl-phenyl]-ethanesulfonyl}-1,3,8-triaza-spiro[4.5]dec-1-en-4-one]
cAMP production activity (%): 103%

CCc1cc(NC(C)=O)ccc1/C=C/S(=O)(=O)N1CCC2(CC1)N=C(C1CCC(C)CC1)NC2=O (stereo not shown) [Compound 510, N-(3-ethyl-4-{(E)-2-[2-(4-methyl-cyclohexyl)-4-oxo-1,3,8-triaza-spiro[4.5]dec-1-ene-8-sulfonyl]-vinyl}-phenyl)-acetamide]
cAMP production activity (%): 57%

Cc1cc(CC(=O)N(C)C)ccc1CCS(=O)(=O)N1CCC2(CC1)N=C(C1CCC(C)CC1)NC2=O (stereo not shown) [Compound 1387, N,N-dimethyl-2-(3-methyl-4-{2-[2-(4-methyl-cyclohexyl)-4-oxo-1,3,8-triaza-spiro[4.5]dec-1-ene-8-sulfonyl]-ethyl}-phenyl)-acetamide]
cAMP production activity (%): 68%

CN(C)C(=O)c1cccc(C2=NC3(CCN(S(=O)(=O)c4cccc(Cl)c4)CC3)C(=O)N2)c1 [Compound 351, 3-[8-(3-chloro-benzenesulfonyl)-4-oxo-1,3,8-triaza-spiro[4.5]dec-1-en-2-yl]-N,N-dimethyl-benzamide]
cAMP production activity (%): 7.4%

Cc1cc(OC[C@H](O)[C@@H](O)CO)cc(C)c1/C=C/S(=O)(=O)N1CCC2(CC1)N=C(C1CCC(CCC(F)(F)F)CC1)NC2=O (stereo partly drawn) [Compound 705, 8-{(E)-2-[2,6-dimethyl-4-((2S,3S)-2,3,4-trihydroxy-butoxy)-phenyl]-ethenesulfonyl}-2-[4-(3,3,3-trifluoro-propyl)-cyclohexyl]-1,3,8-triaza-spiro[4.5]dec-1-en-4-one]
cAMP production activity (%): 76%

CC(=O)N(c1ccc(/C=C/S(=O)(=O)N2CCC3(CC2)N=C(C2CCCCC2)NC3=O)c(C)c1)C1CCCC1 [Compound 734, N-{4-[(E)-2-(2-Cyclohexyl-4-oxo-1,3,8-triaza-spiro[4.5]dec-1-ene-8-sulfonyl)-vinyl]-3-methyl-phenyl}-N-cyclopentyl-acetamide trifluoroacetate]
cAMP production activity (%): 47%

CC1(C)OC[C@H](Cn2ccc3c(/C=C/S(=O)(=O)N4CCC5(CC4)N=C(C4CCCCC4)NC5=O)c(F)ccc32)O1 [Compound 500, 2-cyclohexyl-8-{(E)-2-[1-((S)-2,2-dimethyl-[1,3]dioxolan-4-ylmethyl)-5-fluoro-1H-indol-4-yl]-ethenesulfonyl}-1,3,8-triaza-spiro[4.5]dec-1-en-4-one]
cAMP production activity (%): 61%

CC(=O)Nc1ccc(CCS(=O)(=O)N2CCC3(CC2)N=C([C@H]2CC[C@@H](OCCCF)CC2)NC3=O)c(C)c1 [Compound 914, N-[4-(2-{2-[4-(3-fluoro-propoxy)-cyclohexyl]-4-oxo-1,3,8-triaza-spiro[4.5]dec-1-ene-8-sulfonyl}-ethyl)-3-methyl-phenyl]-acetamide]
cAMP production activity (%): 68%

Cc1cc(C(=O)N2CC[C@@H](N)C2)cc(C)c1/C=C/S(=O)(=O)N1CCC2(CC1)N=C(c1cccc(OC(F)(F)F)c1)NC2=O [Compound 404, 8-{(E)-2-[4-((R)-3-amino-pyrrolidine-1-carbonyl)-2,6-dimethyl-phenyl]-ethenesulfonyl}-2-(3-trifluoromethoxy-phenyl)-1,3,8-triaza-spiro[4.5]dec-1-en-4-one]
cAMP production activity (%): 88%

CC(=O)N(c1ccc(/C=C/S(=O)(=O)N2CCC3(CC2)N=C(c2cccc(OC(F)(F)F)c2)NC3=O)c(C)c1)C(C)C [Compound 603, N-isopropyl-N-(3-methyl-4-{(E)-2-[4-oxo-2-(3-trifluoromethoxy-phenyl)-1,3,8-triaza-spiro[4.5]dec-1-ene-8-sulfonyl]-vinyl}-phenyl)-acetamide]
cAMP production activity (%): 69%

Cc1cc(N(C)C(N)=O)cc(C)c1CCS(=O)(=O)N1CCC2(CC1)N=C([C@@H]1C[C@H](C)C[C@H](C)C1)NC2=O [Compound 1040, 1-(4-{2-[2-((1S,3S,5R)-3,5-dimethyl-cyclohexyl)-4-oxo-1,3,8-triaza-spiro[4.5]dec-1-ene-8-sulfonyl]-ethyl}-3,5-dimethyl-phenyl)-1-methyl-urea]
cAMP production activity (%): 111%

Cc1cc(N(C)C(N)=O)cc(C)c1CCS(=O)(=O)N1CCC2(CC1)N=C(C1CCC(C)(C)CC1)NC2=O [Compound 938, 1-(4-{2-[2-(4,4-dimethyl-cyclohexyl)-4-oxo-1,3,8-triaza-spiro[4.5]dec-1-ene-8-sulfonyl]-ethyl}-3,5-dimethyl-phenyl)-1-methyl-urea]
cAMP production activity (%): 97%

Cc1cc2ccc1CCS(=O)(=O)N1CCC3(CC1)N=C(NC3=O)c1cc(cc(C(F)(F)F)c1)OCC/C=C\CCCCCCN(C)C2=O [Compound 1417]
cAMP production activity (%): 49%

O=C1NC(C2CCCCC2)=NC12CCCN(S(=O)(=O)c1cccc(Cl)c1)CC2 (stereo not shown) [Compound 70, 8-(3-Chloro-benzenesulfonyl)-2-cyclohexyl-1,3,8-triaza-spiro[4.6]undec-1-en-4-one]
cAMP production activity (%): 31%

Cc1cc(CN2C(=O)NC(C)(C)C2=O)cc(C)c1/C=C/S(=O)(=O)N1CCC2(CC1)N=C(C1CCC(CCC(F)(F)F)CC1)NC2=O (stereo not shown) [Compound 555, 3-[3,5-dimethyl-4-((E)-2-{4-oxo-2-[4-(3,3,3-trifluoro-propyl)-cyclohexyl]-1,3,8-triaza-spiro[4.5]dec-1-ene-8-sulfonyl}-vinyl)-benzyl]-5,5-dimethyl-imidazolidine-2,4-dione]
cAMP production activity (%): 40%

Cc1cc(C(=O)N2CCCC2)ccc1/C=C/S(=O)(=O)N1CCC2(CC1)N=C(c1cccc(C(F)(F)F)c1)NC2=O [Compound 212, 8-{(E)-2-[2-methyl-4-(pyrrolidine-1-carbonyl)-phenyl]-ethenesulfonyl}-2-(3-trifluoromethyl-phenyl)-1,3,8-triaza-spiro[4.5]dec-1-en-4-one]
cAMP production activity (%): 59%
